# According to US20140349945A1, “PEG-AMINO ACID-OLIGOPEPTIDE-IRINOTECAN DRUG CONJUGATES AND THE PHARMACEUTICAL COMPOSITIONS” (JENKEM TECHNOLOGY CO., LTD. (BEIJING), priority 2011, published 2014):
# Marks after values point to notes of the source that are not given here.
# Columns and labels:
# [1] = system: human lung cancer cells A549; assay: Inhibitory effect on transplanted tumors of human lung cancer cells A549 in nude mice; details: for Weight At the beginning: A549 tumor-bearing nude mice, baseline
# Description: (§1) BALB/cA nude mice (male, 5-6 weeks old, weighed 18±2 g) were provided by the Shanghai Institute of Materia Medica, Chinese Academy of Sciences. […] Animal numbers of each group: 12 mice in negative control group and 6 mice in treatment group.
# Human lung tumor cell strains A549 were purchased from ATCC. 5×10^6 cells were subcutaneously inoculated in the right armpit of each nude mouse. The transplanted tumors were transferred in nude mice for two generations before utilization.
# (§2) Vigorous tumor tissues were cut into pieces of about 1.5 mm3 and then subcutaneously inoculated to the right armpit nude mice under sterile conditions. The diameters of the subcutaneous transplanted tumors were measured using a vernier caliper. The animals were randomly grouped when the tumors grew to 100-200 mm3.
# (§3) After the administration, the animals were observed consecutively for one week. During the whole experiment, diameters of the transplanted tumors were measured and the animals were weighed two times a week. The tumor volume (TV) was calculated as follows: TV=½×a×b^2, wherein, a and b represented length and width respectively. According to the results of measurements, the relative tumor volumes (RTV) were calculated as follows: RTV=Vt/V0. Wherein, V0 were the volumes measured at administration after caging (i.e. d0), Vt were the tumor volumes of every measurements.
# [2] = system: human colon cancer cells SW-620; assay: Inhibitory effect on transplanted tumor of human colon cancer cells SW-620 in nude mice; details: for RTV mean ± SD) / TV (mean ± SD) d 28 / number of animals with tumor regression: SW-620, d 28; for number of animals with tumor regression: 6 mice per group; for Weight At the beginning / Weight At last: SW-620 tumor-bearing nude mice; for Weight At the beginning: baseline; for Weight At last: end of experiment
# Description: as §1
# Human […] tumor cell strains SW-620 were purchased from ATCC. 5×10^6 cells were subcutaneously inoculated in the right armpit of each nude mouse. The transplanted tumors were transferred in nude mice for two generations before utilization.
# as §3, with “Vigorous tumor tissues were cut into pieces of about 1.5 mm3 and then subcutaneously inoculated to the right armpit nude mice under sterile conditions. The diameters of the subcutaneous transplanted tumors were measured using a vernier caliper. The animals were randomly grouped when the tumors grew to 100-200 mm3. […] After” for “After”
# [3] = system: human colon cancer cells HCT-116; assay: Inhibitory effect on transplanted tumors of human colon cancer cells HCT-116 in nude mice; details: for Weight At the beginning / Weight At lats: HCT-116 tumor-bearing nude mice; for Weight At the beginning: baseline; for Weight At lats: end of experiment
# Description: BALB/cA nude mice (male, 4-6 weeks old, weighed 19±2 g) were provided by the Shanghai Institute of Materia Medica, Chinese Academy of Sciences. […] Animal numbers of each group: 12 mice in negative control group and 6 mice in treatment group.
# 5×10^6 cells were subcutaneously inoculated in the right armpit of each nude mouse. The transplanted tumors were transferred in nude mice for two generations before utilization.
# as §2, §3
# [4] = system: human colon cancer cells HT-29; assay: Inhibitory effect on transplanted tumors of human colon cancer cells HT-29 in nude mice; details: for Weight At the beginning / Weight At lats: HT-29 tumor-bearing nude mice; for Weight At the beginning: baseline; for Weight At lats: end of experiment
# Description: as §1
# Human colon tumor cell strains HT-29 were purchased from ATCC. 5×10^6 cells were subcutaneously inoculated in the right armpit of each nude mouse. The transplanted tumors were transferred in nude mice for two generations before utilization.
# Vigorous tumor tissues were cut into pieces of about 1.5 mm^3 and then subcutaneously inoculated to the right armpit nude mice under sterile conditions. The diameters of the subcutaneous transplanted tumors were measured using a vernier caliper. The animals were randomly grouped when the tumors grew to 100-200 mm^3.
# as §3
# [5] = system: human ovarian cancer cells SKOV-3; assay: Inhibitory effect on transplanted tumor of human ovarian cancer cells SKOV-3 in nude mice; details: for TV (mean ± SD) d 28 / number of animals with tumor regression: d 28; for number of animals with tumor regression: 6 mice per group; for Weight At the beginning / Weight At lats: SKOV-3 tumor-bearing nude mice; for Weight At the beginning: baseline; for Weight At lats: end of experiment
# Description: as §1
# Human […] tumor cell strains SKOV-3 were purchased from ATCC. 5×10^6 cells were subcutaneously inoculated in the right armpit of each nude mouse. The transplanted tumors were transferred in nude mice for two generations before utilization.
# as §2, §3
structure (smiles),measurement,setting,value
"CCc1c2c(nc3ccc(OC(=O)N4CCC(N5CCCCC5)CC4)cc13)-c1cc3c(c(=O)n1C2)COC(=O)[C@]3(O)CC [CPT-11, Irinotecan]",TV (mean ± SD) d 28,"[1]; 15 mg/kg, iv q3w × 3w, A549, d 28",831 ± 305 mm^3
same,Weight At the beginning,"[1]; 15 mg/kg, iv q3w × 3w",18.1 g
same,RTV mean ± SD),"[1]; 45 mg/kg, iv qw × 3w, A549, d 28",9.87 ± 4.87 ^
same,Weight At the beginning,"[1]; 45 mg/kg, iv qw × 3w",18.4 g
same,RTV mean ± SD),"[2]; 15 mg/kg, iv q3w × 3w","0.02 ± 0.02**^,"
same,TV (mean ± SD) d 28,"[2]; 15 mg/kg, iv q3w × 3w",2.09 ± 1.51 mm^3
same,number of animals with tumor regression,"[2]; 15 mg/kg, iv q3w × 3w",0
same,Weight At the beginning,"[2]; 15 mg/kg, iv q3w × 3w",19.7 g
same,Weight At last,"[2]; 15 mg/kg, iv q3w × 3w",24.2 g
same,RTV mean ± SD),"[2]; 45 mg/kg, iv qw × 3w",6.60 ± 1.56
same,TV (mean ± SD) d 28,"[2]; 45 mg/kg, iv qw × 3w",877 ± 324 mm^3
same,number of animals with tumor regression,"[2]; 45 mg/kg, iv qw × 3w",0
same,Weight At the beginning,"[2]; 45 mg/kg, iv qw × 3w",18.8 g
same,Weight At last,"[2]; 45 mg/kg, iv qw × 3w",21.8 g
same,TV (mean ± SD) d 28,"[3]; 15 mg/kg, iv q3w × 3w, HCT-116",322 ± 37 mm^3
same,Weight At the beginning,"[3]; 15 mg/kg, iv q3w × 3w",19.1 g
same,Weight At lats,"[3]; 15 mg/kg, iv q3w × 3w",16.6 g
same,body weight change during the whole experiment (in words),"[3]; 45 mg/kg group, compared with solvent control group, HCT-116",slightly higher weight loss
same,TV (mean ± SD) d 28,"[3]; 45 mg/kg, iv qw × 3w, HCT-116",512 ± 99 mm^3
same,Weight At the beginning,"[3]; 45 mg/kg, iv qw × 3w",19.2 g
same,Weight At lats,"[3]; 45 mg/kg, iv qw × 3w",15.1 g
same,Weight At the beginning,"[4]; 15 mg/kg, iv q3w × 3w",18.2 g
same,Weight At lats,"[4]; 15 mg/kg, iv q3w × 3w",16.0 g
same,Weight At the beginning,"[4]; 45 mg/kg, iv qw × 3w",18.6 g
same,Weight At lats,"[4]; 45 mg/kg, iv qw × 3w",16.2 g
same,body weight change during the whole experiment (in words),"[4]; two groups treated with different doses (15 and 45 mg/kg), HT-29",underwent weight loss
same,TV (mean ± SD) d 28,"[5]; 15 mg/kg, iv q3w × 3w, SKOV-3",924 ± 443 mm^3
same,number of animals with tumor regression,"[5]; 15 mg/kg, iv q3w × 3w, SKOV-3",0
same,Weight At the beginning,"[5]; 15 mg/kg, iv q3w × 3w",18.9 g
same,Weight At lats,"[5]; 15 mg/kg, iv q3w × 3w",18.0 g
same,TV (mean ± SD) d 28,"[5]; 45 mg/kg, iv qw × 3w, SKOV-3",1753 ± 878 mm^3
same,number of animals with tumor regression,"[5]; 45 mg/kg, iv qw × 3w, SKOV-3",0
same,Weight At the beginning,"[5]; 45 mg/kg, iv qw × 3w",19.7 g
same,Weight At lats,"[5]; 45 mg/kg, iv qw × 3w",18.4 g
same,body weight change during the whole experiment (in words),"[5]; CPT-11 both dose groups, CPT-1 45 mg/kg, SKOV-3",slight weight loss
